Source: ChEMBL document CHEMBL1133228, “Synthesis and PTP1B inhibition of novel 4-aryl-1-oxa-9-thiacyclopenta[b]fluorenes” (Bioorg Med Chem Lett, 2000)

Key:
[1] = system: Mus musculus; experiment: Reduction in insulin-induced protein tyrosine phosphorylation in liver of ob/ob mice at 10 mg/kg perorally; assay type: functional; conditions: route oral
[2] = molecular target: T1, Tyrosine-protein phosphatase non-receptor type 1 (Homo sapiens, UniProt P18031); experiment: Compound was evaluated for the inhibitory activity against recombinant Protein-tyrosine phosphatase 1B using, phosphotyrosyl dodecapeptide [TRDI(P)YETD(P)Y(P)YRK] as substrate
T1 sequence (P18031 whole entry): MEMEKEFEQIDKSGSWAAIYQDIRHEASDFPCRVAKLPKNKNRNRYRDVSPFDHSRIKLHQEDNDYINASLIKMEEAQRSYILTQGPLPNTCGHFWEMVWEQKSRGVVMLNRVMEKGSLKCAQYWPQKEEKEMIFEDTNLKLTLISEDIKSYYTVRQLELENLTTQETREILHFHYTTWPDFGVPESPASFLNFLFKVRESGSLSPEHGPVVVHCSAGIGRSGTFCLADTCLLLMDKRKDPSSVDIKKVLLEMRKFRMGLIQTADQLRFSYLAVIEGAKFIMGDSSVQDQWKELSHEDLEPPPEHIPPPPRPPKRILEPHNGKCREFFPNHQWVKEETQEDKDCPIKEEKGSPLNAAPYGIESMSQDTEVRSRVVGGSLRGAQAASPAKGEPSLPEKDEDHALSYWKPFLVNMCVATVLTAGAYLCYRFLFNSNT

[3] = system: Mus musculus; experiment: Reduction in insulin-induced protein tyrosine phosphorylation in liver of ob/ob mice at 25 mg/kg perorally; assay type: functional; conditions: route oral

Row | IC50 [2] [nM] | Structure (SMILES) | Insulin lowering effect [1] [%] | Insulin lowering effect [3] [%]
1 |  | Cc1oc2cc3sc4ccccc4c3c(-c3cc(I)c(O[C@H](Cc4ccccc4)C(=O)O)c(I)c3)c2c1C | 43 | 
2 | 179 | O=C(O)[C@@H](Cc1ccccc1)Oc1c(I)cc(-c2c3ccccc3cc3sc4ccccc4c23)cc1I |  | 68
